Reference: patent publication US5609872A, “Peptides comprising a protective epitope from blood stages of plasmodium falciparum” (priority 1990, dated 1997)
Ends that are not written are not given here.

System: binding of mAb 33G2 to Pf11/RESA
Assay: not given
Details: peptide mixed with a fixed concentration of the mAb; up to 200 μg/ml tested; cited from earlier work
For “(EEVVEEVVP)2: synthetic peptide corresponding to repeated sequence in antigen Pf11.1 (also: dimer of the repeat (EEVVEEVVP)2)”, the “peptide concentration giving complete inhibition of mAb 33G2 immunofluorescence” value is listed as 100 µg/mL.
In the case of “Y (SVTEEIAEEDK)2: peptide corresponding to a dimer of amino acids 2-12 in antigen Ag332 (YSVTEEIAEEDK; also: dimer of the peptide)”, the “peptide concentration giving complete inhibition of mAb 33G2 immunofluorescence” value is listed as 0.2 µg/mL.

System: mAb 33G2
Assay: PEPSCAN ELISA of rod-bound peptides with mAb 33G2
Type: binding, human
Details: culture supernatant with mAb 33G2 (approx. 10 μg/ml) diluted 1:100; N-acetylated peptides on rods
Protocol: The detailed epitope specificity on the single amino acid level for the mAb 33G2 was performed using the multiple peptide synthesis technique (PEPSCAN) developed by Geysen et al. (J. Immunol. Methods 102, 259-274, 1987). Peptides were synthesized on polyethylene rods on which polymers of polyacrylic acid had been formed by […]. Polyethylene rods and Pmoc L-amino acids performed as active esthers (Cambridge Research Biochemicals, UK) were used for synthesis according to instructions of the manufacturer. The N-terminals of all peptides were acetylated. As a basis for the mAb 33G2 epitope analysis, the sequence of amino acid residues 1-19 [SEQ ID NO.: 15] (ESVTEEIAEEDKSVIEEAV) of Ag332 (Mattei, D., Berzins, K., Wahlgren, M., Udomsangpetch, R., Perlmann, P., Griesser, H. W., Scherf, A., M uller-Hill, B., Bonnefoy, S., Guillotte, M., Langsley, G., Pereira da Silva, L. and Mercereau-Puijalon, O. (1989) Cross-reactive antigenic determinants present on different Plasmodium falciparum blood-stage antigens. Parasite Immunol. 11, 15-30) was used, containing sequences of the peptides with the highest reactivity with the mAb (Udomsangpetch, R., Carlsson, J., W ahlin, B., Holmquist, G., Ozaki, L. S., Scherf, A., Mattei, D., Mercereau-Puijalon, O., Uni, S., Aikawa, M., Berzins, K. and Perlmann, P. (1989) Reactivity of the human monoclonal antibody 33G2 with repeated sequences of three distinct Plasmodium falciparum antigens. J. Immunol. 142, 3620-3626). All possible overlapping heptapeptides, hexpeptides, pentapeptides and tetrapeptides covering the mentioned sequence were synthesized and their reactivity with mAb 33G2 was analysed by ELISA as described by Geysen et al. (J. Immunol. Methods 102, 259-274, 1987). Culture supernatant containing mAb 33G2 (approx. 10 μg/ml), was diluted 1:100. Peptide containing rods were washed in phosphate-buffered saline with 0.05% Tween 20 between all steps in ELISA. Bound antibodies were detected with a rabbit antihuman IgM-alkaline phosphatase conjugate (Sigma, St. Louis, Mo.) using p-nitrophenyl phosphate, disodium salt (Sigma) as substrate.
In the case of “ESVTEEI [glu-ser-val-thr-glu-glu-ile, heptapeptide, amino acids 1-7 of Ag332]”, the “reactivity with mAb 33G2 in ELISA (absorbance at 405 nm), in words” value (“reactivity with mAb 33G2 in ELISA” for short) is reported as “showed reactivity”.
With “IADEV: pentapeptide epitope analog of residue 3-7 of Ag332” the “reactivity with mAb 33G2 in ELISA” value was “recognized”.
In the case of “LVEEV: pentapeptide epitope analog of residue 3-7 of Ag332”, the “reactivity with mAb 33G2 in ELISA” value is reported as “recognized”.
With “SVTEEIA [ser-val-thr-glu-glu-ile-ala, heptapeptide, amino acids 2-8 of Ag332]” the “reactivity with mAb 33G2 in ELISA” value was “showed reactivity”.
In the case of “TEEIAEE [thr-glu-glu-ile-ala-glu-glu, heptapeptide, amino acids 4-10 of Ag332]”, the “reactivity with mAb 33G2 in ELISA” value is reported as “showed reactivity”.
In the case of “VTEEIAE [val-thr-glu-glu-ile-ala-glu, heptapeptide, amino acids 3-9 of Ag332]”, the “reactivity with mAb 33G2 in ELISA” value is reported as “showed reactivity”.
In the case of “VVEEV: pentapeptide epitope analog of residue 3-7 of Ag332; printed as SEQ ID NO.:19 (LVEEV)”, the “reactivity with mAb 33G2 in ELISA” value is reported as “recognized”.
With “YLDEV: pentapeptide epitope analog of residue 3-7 of Ag332” the “reactivity with mAb 33G2 in ELISA” value was “did not react”.
With ile-ala-asp-glu-ile (IADEI) the “reactivity with mAb 33G2 in ELISA” value was “recognized”.
In the case of ile-thr-glu-glu-ile (ITEEI), the “reactivity with mAb 33G2 in ELISA” value is reported as “recognized”.
For “ser-val-thr-glu-glu-ile (SVTEEI) [hexapeptide, amino acids 2-7 of Ag332]”, the “reactivity with mAb 33G2 in ELISA” value was “recognized”.
With “thr-glu-glu-ile-ala-glu (TEEIAE) [hexapeptide, amino acids 4-9 of Ag332]” the “reactivity with mAb 33G2 in ELISA” value was “recognized”.
For val-ala-glu-glu-ile (VAEEI), the “reactivity with mAb 33G2 in ELISA” value was “recognized”.
With “val-thr-glu-glu-ile-ala (VTEEIA) [hexapeptide, amino acids 3-8 of Ag332]” the “reactivity with mAb 33G2 in ELISA” value was “recognized”.
